Results taken from PubChem BioAssay (NCI).
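48-hour exposure; five concentrations; linearly interpolated endpoints. GI50 = concentration required for 50% inhibition of growth. TGI: total growth inhibition.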

Assays:
Assay in all cases: growth of human tumour cells (NCI), 48 h
[1] = test system: U251 CNS
[2] = test system: HOP-62 NSCLC
[3] = test system: DU-145 prostate
[4] = test system: SK-OV-3 ovarian
[5] = test system: ACHN renal
[6] = test system: EKVX NSCLC
[7] = test system: SNB-19 CNS
[8] = test system: 786-0 renal
[9] = test system: UACC-257 melanoma
[10] = test system: COLO 205 colon
[11] = test system: SR leukemia
[12] = test system: OVCAR-5 ovarian
[13] = test system: HCT-116 colon
[14] = test system: CAKI-1 renal
[15] = test system: MDA-MB-231 breast
[16] = test system: SW-620 colon
[17] = test system: MDA-MB-468 breast
[18] = test system: NCI-H23 lung
[19] = test system: HCT-15 colon
[20] = test system: UO-31 renal
[21] = test system: OVCAR-4 ovarian
[22] = test system: SNB-75 CNS
[23] = test system: A549 NSCLC
[24] = test system: T-47D breast
[25] = test system: NCI-H460 lung
[26] = test system: OVCAR-8 ovarian
[27] = test system: MCF7 breast
[28] = test system: SK-MEL-2 melanoma
[29] = test system: LOX IMVI melanoma
[30] = test system: MDA-MB-435
[31] = test system: KM12 colon
[32] = test system: SF-295 CNS
[33] = test system: HOP-92 NSCLC
[34] = test system: BT-549 breast
[35] = test system: SN12C renal
[36] = test system: TK-10 renal
[37] = test system: NCI/ADR-RES ovarian
[38] = test system: OVCAR-3 ovarian
[39] = test system: CCRF-CEM leukemia
[40] = test system: MALME-3M melanoma
[41] = test system: M14 melanoma
[42] = test system: NCI-H226 lung
[43] = test system: SK-MEL-5 melanoma
[44] = test system: PC-3 prostate
[45] = test system: RXF 393 renal
[46] = test system: IGROV1 ovarian
[47] = test system: SF-539 CNS
[48] = test system: SK-MEL-28 melanoma
[49] = test system: HT29 colon
[50] = test system: HS 578T breast
[51] = test system: RPMI-8226 leukemia
[52] = test system: NCI-H522 lung
[53] = test system: A498 renal
[54] = test system: MOLT-4 leukemia
[55] = test system: K-562 leukemia
[56] = test system: HCC-2998 colon
[57] = test system: HL-60(TB) leukemia
[58] = test system: UACC-62 melanoma
[59] = test system: SF-268 CNS

O=C(Nc1ccc(Cl)c([N+](=O)[O-])c1)Nc1ccc(Cl)c([N+](=O)[O-])c1
GI50 [1]: 3.02 µM
TGI [1]: 12.2 µM
GI50 [2]: 4.63 µM
TGI [2]: 17.2 µM
GI50 [3]: 3.66 µM
TGI [3]: 13.8 µM
GI50 [4]: 4.04 µM
TGI [4]: 15.5 µM
GI50 [5]: 2.69 µM
TGI [5]: 7.44 µM
GI50 [6]: 3.56 µM
TGI [6]: 13.1 µM
GI50 [7]: 2.68 µM
TGI [7]: 10.5 µM
GI50 [8]: 2.91 µM
TGI [8]: 11.9 µM
GI50 [9]: 4.81 µM
TGI [9]: 17.2 µM
GI50 [10]: 2.69 µM
TGI [10]: 6.97 µM
GI50 [11]: 3.57 µM
TGI [11]: 20.3 µM
GI50 [12]: 7.12 µM
TGI [12]: 20.7 µM
GI50 [13]: 3.19 µM
TGI [13]: 9.34 µM
GI50 [14]: 2.98 µM
TGI [14]: 10.5 µM
GI50 [15]: 3.05 µM
TGI [15]: 8.99 µM
GI50 [16]: 3.43 µM
TGI [16]: 13 µM
GI50 [17]: 2.2 µM
TGI [17]: 6.48 µM
GI50 [18]: 2.36 µM
TGI [18]: 6.35 µM
GI50 [19]: 2.83 µM
TGI [19]: 10.9 µM
GI50 [20]: 2.82 µM
TGI [20]: 10.1 µM
GI50 [21]: 2.95 µM
TGI [21]: 11.3 µM
GI50 [22]: 3.82 µM
TGI [22]: 19.5 µM
GI50 [23]: 4.29 µM
TGI [23]: 16.9 µM
GI50 [24]: 2.2 µM
TGI [24]: 9.1 µM
GI50 [25]: 3.22 µM
TGI [25]: 10.6 µM
GI50 [26]: 4.06 µM
TGI [26]: 14.7 µM
GI50 [27]: 2.31 µM
TGI [27]: 7.43 µM
GI50 [28]: 2.9 µM
TGI [28]: 9.11 µM
GI50 [29]: 3.13 µM
TGI [29]: 9.64 µM
GI50 [30]: 3.71 µM
TGI [30]: 12.8 µM
GI50 [31]: 3.49 µM
TGI [31]: 12.6 µM
GI50 [32]: 2.46 µM
TGI [32]: 7.83 µM
GI50 [33]: 2.28 µM
TGI [33]: 6.53 µM
GI50 [34]: 2.79 µM
TGI [34]: 9.94 µM
GI50 [35]: 2.92 µM
TGI [35]: 9.19 µM
GI50 [36]: 4.31 µM
TGI [36]: 16.6 µM
GI50 [37]: 3.2 µM
TGI [37]: 11.2 µM
GI50 [38]: 2.6 µM
TGI [38]: 7.91 µM
GI50 [39]: 2.95 µM
TGI [39]: 11.3 µM
GI50 [40]: 3.02 µM
TGI [40]: 11.8 µM
GI50 [41]: 4.04 µM
TGI [41]: 15 µM
GI50 [42]: 2.92 µM
TGI [42]: 10.1 µM
GI50 [43]: 2.94 µM
TGI [43]: 10.5 µM
GI50 [44]: 2.83 µM
TGI [44]: 10.9 µM
GI50 [45]: 11.3 µM
TGI [45]: 24.8 µM
GI50 [46]: 3.02 µM
TGI [46]: 9.14 µM
GI50 [47]: 4.88 µM
TGI [47]: 17.3 µM
GI50 [48]: 3.78 µM
TGI [48]: 14.4 µM
GI50 [49]: 3.34 µM
TGI [49]: 13.3 µM
GI50 [50]: 5.46 µM
TGI [50]: 31.3 µM
GI50 [51]: 2.27 µM
TGI [51]: 6.32 µM
GI50 [52]: 2.34 µM
TGI [52]: 5.81 µM
GI50 [53]: 3.33 µM
TGI [53]: 10.8 µM
GI50 [54]: 3.12 µM
TGI [54]: 14.6 µM
GI50 [55]: 2.8 µM
TGI [55]: 14.1 µM
GI50 [56]: 3.32 µM
TGI [56]: 11.9 µM
GI50 [57]: 2.72 µM
TGI [57]: 7.11 µM
GI50 [58]: 2.74 µM
TGI [58]: 10.6 µM
GI50 [59]: 3.87 µM
TGI [59]: 15.8 µM

O=C1NC(=NC23CC4CC(CC(C4)C2)C3)N/C1=C\c1ccc2ncoc2c1
GI50 [1]: 0.303 µM
TGI [1]: > 100 µM
GI50 [2]: 0.413 µM
TGI [2]: > 100 µM
GI50 [3]: 0.315 µM
TGI [3]: > 100 µM
GI50 [4]: 4.04 µM
TGI [4]: > 100 µM
GI50 [5]: 0.21 µM
TGI [5]: 5.2 µM
GI50 [6]: 0.469 µM
TGI [6]: 4.56 µM
GI50 [7]: 0.319 µM
TGI [7]: > 100 µM
GI50 [8]: 0.434 µM
TGI [8]: > 100 µM
GI50 [9]: 0.863 µM
TGI [9]: > 34.4 µM
GI50 [10]: 0.405 µM
TGI [10]: 5.91 µM
GI50 [11]: 0.0451 µM
TGI [11]: 2.48 µM
GI50 [12]: 0.322 µM
TGI [12]: > 100 µM
GI50 [13]: 0.0993 µM
TGI [13]: > 100 µM
GI50 [14]: 0.391 µM
TGI [14]: > 100 µM
GI50 [15]: 0.369 µM
TGI [15]: 8.05 µM
GI50 [16]: 0.318 µM
TGI [16]: > 100 µM
GI50 [17]: 0.169 µM
TGI [17]: 0.548 µM
GI50 [18]: 0.217 µM
TGI [18]: 1.51 µM
GI50 [19]: 0.24 µM
TGI [19]: > 100 µM
GI50 [20]: 0.358 µM
GI50 [21]: 0.902 µM
TGI [21]: > 43.3 µM
GI50 [22]: 0.28 µM
TGI [22]: 1.4 µM
GI50 [23]: 0.283 µM
TGI [23]: > 100 µM
GI50 [24]: 0.427 µM
TGI [24]: > 100 µM
GI50 [25]: 0.385 µM
TGI [25]: > 55.5 µM
GI50 [26]: 0.293 µM
TGI [26]: > 100 µM
GI50 [27]: 0.324 µM
TGI [27]: > 100 µM
GI50 [28]: 0.5 µM
TGI [28]: 1.32 µM
GI50 [29]: 0.239 µM
TGI [29]: > 100 µM
GI50 [30]: 0.613 µM
TGI [30]: > 100 µM
GI50 [31]: 0.342 µM
TGI [31]: > 76 µM
GI50 [32]: 0.487 µM
TGI [32]: > 100 µM
GI50 [33]: 0.511 µM
TGI [33]: > 91.7 µM
GI50 [34]: 0.16 µM
TGI [34]: 1.4 µM
GI50 [35]: 0.254 µM
TGI [35]: > 100 µM
GI50 [36]: 0.737 µM
TGI [36]: > 100 µM
GI50 [37]: 0.253 µM
TGI [37]: 1.21 µM
GI50 [38]: 0.243 µM
TGI [38]: > 84.3 µM
GI50 [39]: 0.267 µM
GI50 [40]: 0.952 µM
TGI [40]: 3.71 µM
GI50 [41]: 0.325 µM
TGI [41]: > 100 µM
GI50 [42]: 0.475 µM
TGI [42]: > 100 µM
GI50 [43]: 0.144 µM
TGI [43]: 5.65 µM
GI50 [44]: 0.338 µM
TGI [44]: > 100 µM
GI50 [45]: 0.215 µM
TGI [45]: 0.477 µM
GI50 [46]: 0.43 µM
TGI [46]: > 44.8 µM
GI50 [47]: 0.103 µM
TGI [47]: 0.474 µM
GI50 [48]: 0.333 µM
TGI [48]: 1.83 µM
GI50 [49]: 1.52 µM
TGI [49]: > 100 µM
GI50 [50]: 0.412 µM
TGI [50]: 4.2 µM
GI50 [51]: 0.279 µM
TGI [51]: 28.5 µM
GI50 [52]: 0.23 µM
TGI [52]: 5.63 µM
GI50 [53]: 0.312 µM
TGI [53]: 0.919 µM
GI50 [54]: 0.281 µM
TGI [54]: > 100 µM
GI50 [55]: 0.589 µM
TGI [55]: > 100 µM
GI50 [56]: 0.588 µM
TGI [56]: 7.53 µM
GI50 [57]: 0.308 µM
TGI [57]: 2.29 µM
GI50 [58]: 0.347 µM
TGI [58]: 1.39 µM
GI50 [59]: 0.412 µM
TGI [59]: 12.8 µM
